Measurements as given in US20230279355A1, “METHOD FOR THE IN VITRO OR EX VIVO AMPLIFICATION OF STEM CELLS OF BROWN OR BEIGE ADIPOCYTES” (CENTRE NATIONAL DE LA RECHERCHE SCIENTIFIQUE, priority 2020, published 2023).

Key:
[1] = test system: hECs (endothelial cells of human adipose tissue)
Experimental: In order to determine the proliferation medium, five mediums, which are generally marketed for the proliferation of human endothelial cells, were tested.

hASCs = experiment: differentiation of hASCs into adipocytes (PLIN1, UCP1 expression); format: cell-based, human
Experimental: In order to determine the differentiation medium, different media were tested. These media were enriched with adipogenic factors then tested for the differentiation of the hASCs. […] It should also be noted that the medium n° 5 is an option to the EGM+ which has not been pursued further.

UCP1 = conditions: described in the literature; cited from earlier work
cells in suspension = conditions: reported; cited from earlier work

## NC(=O)c1ccc(-c2nc(-c3ccc4c(c3)OCO4)c(-c3ccccn3)[nH]2)cc1 [SB431542]
[1]
  viability of hECs: no consequence upon the viability of hECs
hASCs; addition of SB431542 and maintenance of Rosiglitazone
  expression of UCP1: allows the expression of UCP1
hASCs; dexamethasone and IBMX removed after the first three days, SB431542 added
  differentiation into adipocytes (PLIN1): allows restoring the differentiation

## C[C@]12CCC(=O)C=C1CC[C@@H]1[C@@H]2[C@@H](O)C[C@@]2(C)[C@H]1CC[C@]2(O)C(=O)CO [hydrocortisone, Hydrocortisone]
UCP1
  expression of UCP1: able to inhibit the expression of UCP1

## C[C@@H](N)[C@H]1CC[C@H](C(=O)Nc2ccncc2)CC1 [Y27632]
Cells in suspension
  cell viability in suspension: increasing the cell viability in suspension
